These results are taken from publication PMC4104174 (Journal of the American Chemical Society, 2014).

Read-outs that look alike come from different tables or passages of the source.

The conditions of series [1]: free ligand acidity; cited from earlier work.
In series [2] the target is human carbonic anhydrase II (hCAII) (Homo sapiens, UniProt P00918). Kind of series: hCAII activity assay. Format: biochemical.
The target in a further series is hCAII. The conditions noted are these: cited from earlier work.

The pKa is the negative logarithm of the acid dissociation constant. The Ki is a dissociation constant, usually derived from enzyme kinetics or from competition with a known ligand. As for `Cc1cc(=S)c(O)co1` [ATM, 5-hydroxy-2-methyl-4H-pyran-4-thione], in series [1], the pKa is on record as 7.64. Moreover, in series [2], the Ki was 650 ± 60 µM. In addition, the “fold more potent (Ki) than TM and TPMA” value in series [2] (ATM vs TM and TPMA, hCAII) was “roughly 2 fold”.
`Oc1coccc1=S` [TPMA, 3-hydroxy-4H-pyran-4-thione]: the affinity in series [2], expressed as Ki, was 1100 ± 200 µM.
Consider `Oc1ccccc1S` [2-MP, 2-mercaptophenol], for which, on hCAII, the Ki is 3 ± 0.7 µM.
For `Cc1occc(=S)c1O` [TM, 3-hydroxy-2-methyl-4H-pyran-4-thione], the pKa in series [1] is on record as 8.06. Further, the Ki in series [2] came out at 1400 ± 200 µM.
Turning to 2-mercaptopyridine-N-oxide [1,2-HOPTO], on hCAII (previously reported), the Ki is 850 µM.
